System: MV-4-11 cells
Assay: Gene expression microarray analysis (Affymetrix PrimeView) and GSEA
Assay type: cell-based, human
Parameters: RFU PODN (11730768_x_at) / Fold change /veh PODN (11730768_x_at) / RFU LINC00158 (11744669_a_at) / Fold change /veh LINC00158 (11744669_a_at) / RFU DUSP10 (11751237_a_at) / Fold change /veh DUSP10 (11751237_a_at) / RFU ID3 (11757404_x_at) / Fold change /veh ID3 (11757404_x_at) / RFU PLEKHG5 (11737974_s_at) / Fold change /veh PLEKHG5 (11737974_s_at) / RFU LRRC4B (11730491_at) / Fold change /veh LRRC4B (11730491_at) / RFU GIMAP4 (11747438_a_at) / Fold change /veh GIMAP4 (11747438_a_at) / RFU KRT8 (11758183_x_at) / Fold change /veh KRT8 (11758183_x_at) / RFU CNN1 (11734310_a_at) / Fold change /veh CNN1 (11734310_a_at) / RFU VPS37D (11726825_at) / Fold change /veh VPS37D (11726825_at) / RFU C10orf10 (11716522_x_at) / Fold change /veh C10orf10 (11716522_x_at) / RFU KIR2DL2 /// KIR2DL4 /// KIR2DL5A /// KIR2DL5B /// KIR2DS1 /// KIR2DS2 /// KIR2DS3 /// KIR2DS4 /// KIR3DL3 /// KIR3DL3 /// KIR3DS1 (11738374_at) / Fold change /veh KIR2DL2 /// KIR2DL4 /// KIR2DL5A /// KIR2DL5B /// KIR2DS1 /// KIR2DS2 /// KIR2DS3 /// KIR2DS4 /// KIR3DL3 /// KIR3DL3 /// KIR3DS1 (11738374_at) / RFU C1QL1 (11718748_at) / Fold change /veh C1QL1 (11718748_at) / RFU TMPRSS4 (11747572_a_at) / Fold change /veh TMPRSS4 (11747572_a_at) / RFU HAMP (11756126_x_at) / Fold change /veh HAMP (11756126_x_at) / RFU RNFT2 (11725882_a_at) / Fold change /veh RNFT2 (11725882_a_at) / RFU NR4A2 (11747474_a_at) / Fold change /veh NR4A2 (11747474_a_at) / RFU ABCC12 (11746883_a_at) / Fold change /veh ABCC12 (11746883_a_at) / RFU TMEM136 (11760407_x_at) / Fold change /veh TMEM136 (11760407_x_at) / RFU CLDN22 /// WWC2 (11732394_at) / Fold change /veh CLDN22 /// WWC2 (11732394_at) / RFU HLA-DPB1 (11760878_x_at) / Fold change /veh HLA-DPB1 (11760878_x_at) / RFU SPINT1 (11716480_a_at) / Fold change /veh SPINT1 (11716480_a_at) / RFU GAP43 (11754022_s_at) / Fold change /veh GAP43 (11754022_s_at) / RFU A4GNT (11735810_at) / Fold change /veh A4GNT (11735810_at) / RFU PRB3 (11715151_x_at) / Fold change /veh PRB3 (11715151_x_at) / RFU TUBB4B (11761932_at) / Fold change /veh TUBB4B (11761932_at) / RFU CAPN14 (11732068_a_at) / Fold change /veh CAPN14 (11732068_a_at) / RFU TMCC2 (11721928_a_at) / Fold change /veh TMCC2 (11721928_a_at) / RFU IRGQ (11745062_a_at) / Fold change /veh IRGQ (11745062_a_at) / RFU FAM174B (11720279_a_at) / Fold change /veh FAM174B (11720279_a_at) / RFU TMPRSS4 (11748680_a_at) / Fold change /veh TMPRSS4 (11748680_a_at) / RFU FAM212B (11763350_a_at) / Fold change /veh FAM212B (11763350_a_at) / RFU PLEKHG5 (11743358_a_at) / Fold change /veh PLEKHG5 (11743358_a_at) / RFU ZSCAN30 (11745921_a_at) / Fold change /veh ZSCAN30 (11745921_a_at) / RFU CMKLR1 (11741424_a_at) / Fold change /veh CMKLR1 (11741424_a_at) / RFU LOC101060620 /// MAPK8IP1 (11723275_at) / Fold change /veh LOC101060620 /// MAPK8IP1 (11723275_at) / RFU SPTSSB (11747773_x_at) / Fold change /veh SPTSSB (11747773_x_at) / RFU PRSS12 (11739890_at) / Fold change /veh PRSS12 (11739890_at) / RFU BIN1 (11741810_x_at) / Fold change /veh BIN1 (11741810_x_at) / RFU WNT11 (11732464_a_at) / Fold change /veh WNT11 (11732464_a_at) / RFU C10orf10 (11716521_a_at) / Fold change /veh C10orf10 (11716521_a_at) / RFU C5orf56 (11738089_at) / Fold change /veh C5orf56 (11738089_at) / RFU CYB561 (11721691_x_at) / Fold change /veh CYB561 (11721691_x_at) / RFU ANKRD19P (11752326_a_at) / Fold change /veh ANKRD19P (11752326_a_at) / RFU OR2T12 /// OR2T33 /// OR2T8 (11738714_s_at) / Fold change /veh OR2T12 /// OR2T33 /// OR2T8 (11738714_s_at) / RFU VCAN (11748164_a_at) / Fold change /veh VCAN (11748164_a_at) / RFU JSRP1 (11732532_at) / Fold change /veh JSRP1 (11732532_at) / RFU KRTAP10-11 (11738290_x_at) / Fold change /veh KRTAP10-11 (11738290_x_at) / RFU MYO3A (11730013_a_at) / Fold change /veh MYO3A (11730013_a_at) / RFU EBF3 (11725865_a_at) / Fold change /veh EBF3 (11725865_a_at) / RFU CAMK2N1 (11719241_x_at) / Fold change /veh CAMK2N1 (11719241_x_at) / RFU C5orf56 (11738088_a_at) / Fold change /veh C5orf56 (11738088_a_at) / RFU OLFML3 (11715873_a_at) / Fold change /veh OLFML3 (11715873_a_at) / RFU LOC100653217 /// NTM (11731650_a_at) / Fold change /veh LOC100653217 /// NTM (11731650_a_at) / RFU MAPK11 (11762145_a_at) / Fold change /veh MAPK11 (11762145_a_at) / RFU FIZ1 (11724087_x_at) / Fold change /veh FIZ1 (11724087_x_at) / RFU OASL (11726364_x_at) / Fold change /veh OASL (11726364_x_at) / RFU SOX15 (11748057_x_at) / Fold change /veh SOX15 (11748057_x_at) / RFU CD79A (11719716_a_at) / Fold change /veh CD79A (11719716_a_at) / RFU HIST1H1D (11736915_at) / Fold change /veh HIST1H1D (11736915_at) / RFU CASKIN2 (11723855_a_at) / Fold change /veh CASKIN2 (11723855_a_at) / RFU LOC730098 (11760151_x_at) / Fold change /veh LOC730098 (11760151_x_at) / RFU OR4N2 (11742367_at) / Fold change /veh OR4N2 (11742367_at) / RFU PRRT2 (11749266_a_at) / Fold change /veh PRRT2 (11749266_a_at) / RFU SNX32 (11753110_a_at) / Fold change /veh SNX32 (11753110_a_at) / RFU CDHR5 (11726645_a_at) / Fold change /veh CDHR5 (11726645_a_at) / RFU RCAN1 (11760418_a_at) / Fold change /veh RCAN1 (11760418_a_at) / RFU FAM167A (11723789_a_at) / Fold change /veh FAM167A (11723789_a_at) / RFU FAM26E (11764081_at) / Fold change /veh FAM26E (11764081_at) / RFU ISYNA1 (11749810_s_at) / Fold change /veh ISYNA1 (11749810_s_at) / RFU ACY1 (11761880_at) / Fold change /veh ACY1 (11761880_at) / RFU 11764098_at / Fold change /veh 11764098_at / RFU SAMD14 (11745864_x_at) / Fold change /veh SAMD14 (11745864_x_at) / RFU NPB (11741838_a_at) / Fold change /veh NPB (11741838_a_at) / RFU TMPRSS6 (11731388_a_at) / Fold change /veh TMPRSS6 (11731388_a_at) / RFU KRTAP10-2 (11738614_at) / Fold change /veh KRTAP10-2 (11738614_at) / RFU ARHGAP8 /// PRR5-ARHGAP8 (11727945_x_at) / Fold change /veh ARHGAP8 /// PRR5-ARHGAP8 (11727945_x_at) / RFU KRTAP5-7 /// NADSYN1 (11734609_at) / Fold change /veh KRTAP5-7 /// NADSYN1 (11734609_at) / RFU RASL12 (11751679_a_at) / Fold change /veh RASL12 (11751679_a_at) / RFU CDKN2B (11736163_a_at) / Fold change /veh CDKN2B (11736163_a_at) / RFU PRF1 (11729649_at) / Fold change /veh PRF1 (11729649_at) / RFU, ZNF638 /// ZNF638-IT1 / Fold change vs veh, ZNF638 /// ZNF638-IT1 / RFU, PANK3 / Fold change vs veh, PANK3 / RFU, SH3YL1 / Fold change vs veh, SH3YL1 / RFU, ZEB2 / Fold change vs veh, ZEB2 / RFU, NRIP1 / Fold change vs veh, NRIP1 / RFU, PTTG1IP / Fold change vs veh, PTTG1IP / RFU, CAPN2 / Fold change vs veh, CAPN2 / RFU, MED14 / Fold change vs veh, MED14 / RFU, SNORA58 / Fold change vs veh, SNORA58 / RFU, C1orf63 / Fold change vs veh, C1orf63 / RFU, LRRFIP1 / Fold change vs veh, LRRFIP1 / RFU, NDUFAF7 / Fold change vs veh, NDUFAF7 / RFU, SLC12A2 / Fold change vs veh, SLC12A2 / RFU, IBTK / Fold change vs veh, IBTK / RFU, ESF1 / Fold change vs veh, ESF1 / Fold change vs veh, TMEM50B / RFU, TAOK1 / Fold change vs veh, TAOK1 / RFU, ACBD3 / Fold change vs veh, ACBD3 / RFU, TMA16 / Fold change vs veh, TMA16 / RFU, RWDD3 / Fold change vs veh, RWDD3 / RFU, BCAT1 / Fold change vs veh, BCAT1 / RFU, EDEM3 / Fold change vs veh, EDEM3 / RFU, TMEM33 / Fold change vs veh, TMEM33 / RFU, WDR75 / Fold change vs veh, WDR75 / RFU, AHCTF1 / Fold change vs veh, AHCTF1 / RFU, TFRC / Fold change vs veh, TFRC / RFU, ZDHHC17 / Fold change vs veh, ZDHHC17 / RFU, NOM1 / Fold change vs veh, NOM1 / RFU, ARL8B / Fold change vs veh, ARL8B / RFU, ZBTB11 / Fold change vs veh, ZBTB11 / RFU, TAMM41 / Fold change vs veh, TAMM41 / RFU, KIAA1704 /// LOC100996395 / Fold change vs veh, KIAA1704 /// LOC100996395 / RFU, ING1 / Fold change vs veh, ING1 / RFU, TRMT61B / Fold change vs veh, TRMT61B / RFU, FUBP3 / Fold change vs veh, FUBP3 / RFU, TP53 / Fold change vs veh, TP53 / RFU, TNKS2 / Fold change vs veh, TNKS2 / RFU, ZFP14 / Fold change vs veh, ZFP14 / RFU, ACTR2 / Fold change vs veh, ACTR2 / RFU, PPP3R1 / Fold change vs veh, PPP3R1 / RFU, PIK3R1 / Fold change vs veh, PIK3R1 / RFU, HNRNPA1 / Fold change vs veh, HNRNPA1 / RFU, RNF170 / Fold change vs veh, RNF170 / RFU, ZNF28 / Fold change vs veh, ZNF28 / RFU, RNGTT / Fold change vs veh, RNGTT / RFU, OGT / Fold change vs veh, OGT / RFU, BRD1 / Fold change vs veh, BRD1 / RFU, MARS / Fold change vs veh, MARS / RFU, ZNF655 / Fold change vs veh, ZNF655 / RFU, FAHD1 / Fold change vs veh, FAHD1 / RFU, BDP1 / Fold change vs veh, BDP1 / RFU, LRRCC1 / Fold change vs veh, LRRCC1 / RFU, ARID1A / Fold change vs veh, ARID1A / RFU, ZNF146 / Fold change vs veh, ZNF146 / RFU, ZNF330 / Fold change vs veh, ZNF330 / RFU, GPN3 / Fold change vs veh, GPN3 / RFU, C9orf123 / Fold change vs veh, C9orf123 / RFU, N4BP2L2 / Fold change vs veh, N4BP2L2 / RFU, ARFIP1 / Fold change vs veh, ARFIP1 / RFU, FAM179B / Fold change vs veh, FAM179B / RFU, BCL10 / Fold change vs veh, BCL10 / RFU, UHRF1BP1L / Fold change vs veh, UHRF1BP1L / RFU, BET1 / Fold change vs veh, BET1 / RFU, CNOT2 / Fold change vs veh, CNOT2 / RFU, ZNF268 / Fold change vs veh, ZNF268 / Fold change vs veh, ZNF507 / RFU, DGCR2 / Fold change vs veh, DGCR2 / RFU, WDSUB1 / Fold change vs veh, WDSUB1 / Fold change vs veh, HSP90B1 /// MIR3652 / RFU, ADSS / Fold change vs veh, ADSS / RFU, GK / Fold change vs veh, GK / RFU, ZNF148 / Fold change vs veh, ZNF148 / RFU, TAF9 / Fold change vs veh, TAF9 / RFU, SLC1A5 / Fold change vs veh, SLC1A5 / RFU, SLMO2 / Fold change vs veh, SLMO2 / RFU, ABCC4 / Fold change vs veh, ABCC4 / RFU, LOC101060439 /// RAP1B / Fold change vs veh, LOC101060439 /// RAP1B / RFU, RFX7 / Fold change vs veh, RFX7 / RFU, GTPBP10 / Fold change vs veh, GTPBP10 / RFU, CNEP1R1 / Fold change vs veh, CNEP1R1 / RFU, BIVM-ERCC5 /// ERCC5 / Fold change vs veh, BIVM-ERCC5 /// ERCC5 / RFU, ILF3 / Fold change vs veh, ILF3 / RFU 11762660_at / Fold change /veh 11762660_at / RFU VCAN (11757783_s_at) / Fold change /veh VCAN (11757783_s_at) / RFU DDX43 (11728927_at) / Fold change /veh DDX43 (11728927_at) / RFU KRT8 (11758188_x_at) / Fold change /veh KRT8 (11758188_x_at) / RFU NKD1 (11759106_at) / Fold change /veh NKD1 (11759106_at) / RFU SRD5A1 (11742802_a_at) / Fold change /veh SRD5A1 (11742802_a_at) / RFU TPSAB1 /// TPSB2 (11721975_s_at) / Fold change /veh TPSAB1 /// TPSB2 (11721975_s_at) / RFU GSTM3 (11746129_a_at) / Fold change /veh GSTM3 (11746129_a_at) / RFU IL23R (11737362_x_at) / Fold change /veh IL23R (11737362_x_at) / RFU TMEM51 (11727254_a_at) / Fold change /veh TMEM51 (11727254_a_at) / RFU PIWIL2 (11732686_x_at) / Fold change /veh PIWIL2 (11732686_x_at) / RFU ORM1 (11744905_x_at) / Fold change /veh ORM1 (11744905_x_at) / RFU CCDC152 (11743942_at) / Fold change /veh CCDC152 (11743942_at) / RFU ECM1 (11717891_a_at) / Fold change /veh ECM1 (11717891_a_at) / RFU IL23R (11748794_a_at) / Fold change /veh IL23R (11748794_a_at) / RFU TNFAIP8L3 (11732012_x_at) / Fold change /veh TNFAIP8L3 (11732012_x_at) / RFU MBOAT4 (11741988_at) / Fold change /veh MBOAT4 (11741988_at) / RFU 11764193_at / Fold change /veh 11764193_at / RFU TMEM53 (11763286_at) / Fold change /veh TMEM53 (11763286_at) / RFU MAGEB2 (11727129_at) / Fold change /veh MAGEB2 (11727129_at) / RFU TMEM200A (11744735_a_at) / Fold change /veh TMEM200A (11744735_a_at) / RFU CCDC152 (11751479_a_at) / Fold change /veh CCDC152 (11751479_a_at) / RFU FAM211A (11726209_a_at) / Fold change /veh FAM211A (11726209_a_at) / RFU RGS16 (11746705_a_at) / Fold change /veh RGS16 (11746705_a_at) / RFU VCAN (11755009_s_at) / Fold change /veh VCAN (11755009_s_at) / RFU RHOB (11743442_s_at) / Fold change /veh RHOB (11743442_s_at) / RFU RGS16 (11720943_a_at) / Fold change /veh RGS16 (11720943_a_at) / RFU RGS16 (11720944_at) / Fold change /veh RGS16 (11720944_at) / RFU, VPS4B / Fold change vs veh, VPS4B / RFU, CREB1 / Fold change vs veh, CREB1 / RFU, DNAJC13 / Fold change vs veh, DNAJC13 / RFU, GNAQ / Fold change vs veh, GNAQ / RFU, CDK5R1 / Fold change vs veh, CDK5R1 / RFU, ZRANB3 / Fold change vs veh, ZRANB3 / RFU, CUL4A / Fold change vs veh, CUL4A / RFU, CCNY / Fold change vs veh, CCNY / RFU, UFL1 / Fold change vs veh, UFL1 / RFU, COG3 / Fold change vs veh, COG3 / RFU, DIAPH2 / Fold change vs veh, DIAPH2 / RFU, SKA2 / Fold change vs veh, SKA2 / RFU, AFF3 / Fold change vs veh, AFF3 / RFU, LMF1 / Fold change vs veh, LMF1 / RFU, IPO11 / Fold change vs veh, IPO11 / RFU, DFFB / Fold change vs veh, DFFB / RFU, FOXP1 / Fold change vs veh, FOXP1 / RFU, CARD8 / Fold change vs veh, CARD8 / RFU, STRN3 / Fold change vs veh, STRN3 / RFU, ADK / Fold change vs veh, ADK / RFU, RASSF2 / Fold change vs veh, RASSF2 / RFU, WIPF1 / Fold change vs veh, WIPF1 / RFU, LARP1B / Fold change vs veh, LARP1B / RFU, RASA1 / Fold change vs veh, RASA1 / RFU, RB1 / Fold change vs veh, RB1 / RFU, PPFIA1 / Fold change vs veh, PPFIA1 / RFU, MAT2A / Fold change vs veh, MAT2A / RFU, CCT5 / Fold change vs veh, CCT5 / RFU, WDR92 / Fold change vs veh, WDR92 / RFU, CUX1 / Fold change vs veh, CUX1 / RFU, TTC7A / Fold change vs veh, TTC7A / RFU, TMEM135 / Fold change vs veh, TMEM135 / RFU, DEPTOR / Fold change vs veh, DEPTOR / RFU, CPM / Fold change vs veh, CPM / RFU, DNAJB6 / Fold change vs veh, DNAJB6 / RFU, CACNA2D3 / Fold change vs veh, CACNA2D3 / RFU, DTX4 / Fold change vs veh, DTX4 / RFU, TFCP2 / Fold change vs veh, TFCP2 / RFU, GMCL1 /// GMCL1P1 / Fold change vs veh, GMCL1 /// GMCL1P1 / RFU, AEBP2 / Fold change vs veh, AEBP2 / RFU, SNHG1 /// SNORD22 /// SNORD25 /// SNORD26 /// SNORD27 /// SNORD28 /// SNORD29 /// SNORD31 / Fold change vs veh, SNHG1 /// SNORD22 /// SNORD25 /// SNORD26 /// SNORD27 /// SNORD28 /// SNORD29 /// SNORD31 / Fold change (Aza/veh), C12orf56 (ProbeSet 11735607_a_at) / Fold change (ACY-1035/veh), C12orf56 (ProbeSet 11735607_a_at) / Fold change (Aza/veh), FGFR1OP (ProbeSet 11751329_s_at) / Fold change (ACY-1035/veh), FGFR1OP (ProbeSet 11751329_s_at) / Fold change (Aza/veh), VPS36 (ProbeSet 11739960_a_at) / Fold change (ACY-1035/veh), VPS36 (ProbeSet 11739960_a_at) / RFU SYPL1 (11715823_x_at) / Fold change /veh SYPL1 (11715823_x_at) / RFU IGFBP7 (11715501_s_at) / Fold change /veh IGFBP7 (11715501_s_at) / RFU REEP3 (11722064_at) / Fold change /veh REEP3 (11722064_at) / RFU IGLL1 (11728026_x_at) / Fold change /veh IGLL1 (11728026_x_at): dose or concentration left out as unconfirmed
Conditions: MV-4-11 cells, 48 hours

Nc1ncn([C@@H]2O[C@H](CO)[C@@H](O)[C@H]2O)c(=O)n1 [azacitidine]
RFU TMPRSS4 (11747572_a_at): 53.17 RFU

Source: PMC5218480 (PLoS ONE, 2017)
